Measured values: paper PMC5084681, “Ephenidine: A new psychoactive agent with ketamine-like NMDA receptor antagonist properties” (Neuropharmacology, 2017)
“And” between values parts separate entries of the source, which are not always exact repeats. Equal entries are not always repeated. “Also recorded” adds a separate entry of the source. Where two headings read alike, the source gives them in different places.

Legend:
[1] = tested on: NMDA receptor-mediated fEPSP; test: Extracellular recording of NMDA receptor-mediated fEPSP in CA1 of hippocampal slices; assay type: cell-based, rat; conditions: for time-course of reduction of NMDA receptor mediated fEPSP: 1 and 10 μM; for inhibition of NMDA receptor mediated fEPSP: after 4 h superfusion
Procedure: (§1) Male Wistar and Sprague-Dawley rats (Crl:Wi; Charles River, UK) aged 3–10 weeks old were killed by dislocation of cervical vertebrae according to Schedule 1 of the United Kingdom (Scientific Procedures) Act of 1986. Brains were rapidly removed and put in artificial cerebrospinal fluid (aCSF) consisting of 124 mM NaCl, 26 mM NaHCO3, 3 mM KCl, 1.4 mM NaH2PO4, 1 mM MgSO4, 2 mM CaCl2, and 10 mM D-glucose and continuously oxygenated with 95% O2 and 5% CO2. Parasagittal brain slices, 400 μm thick, of the hippocampus were removed, stored and placed in a submerged recording chamber at 28–30 °C.
(§2) Recordings of extracellular synaptic activity were made ([Ceolin et al., 2012], [Volianskis et al., 2013]) using a bipolar electrode to deliver stimuli (0.03 Hz) to the Schaffer collateral pathway to evoke field excitatory postsynaptic potentials (fEPSPs) recorded from a glass microelectrode (3–6 MΩ) in the stratum radiatum of area CA1. […] In initial experiments after 30 min of stable control responses, the remaining response was challenged with 30 μM ephenidine. Using this protocol for isolating NMDA-fEPSPs (see Fig. 2A), 1 and 10 μM ephenidine or 1 and 10 μM D-2-amino-5-phosphonopentanoic acid (D-AP5) were added to the perfusate for up to 4 h while recording the amplitude and area of the NMDA-fEPSP on-line using WinLTP ([Anderson and Collingridge, 2007]). Single exponential curves were fitted to show likely half-times and minimum plateau responses achieved with each concentration used. For selectivity experiments, 50 μM picrotoxin and 1 μM CGP 55845 were added to the solution from the beginning of the experiment and 50 μM ephenidine was superfused for 60 min in the absence of other pharmacological agent.

[2] = tested on: NMDA receptor-mediated EPSCs; test: Whole-cell patch clamp of NMDA receptor-mediated EPSCs in CA1 pyramidal cells; assay type: cell-based, rat
Procedure: as §1
Whole-cell patch clamp recordings of excitatory postsynaptic currents (EPSCs) were made from CA1 pyramidal cells under visual guidance with IR-DIC optics as described by [Park et al. (2016)]. The recording chamber was maintained at 32 °C. Borosilicate glass pipettes were used with a resistance of 3–5 MΩ. The internal solution comprised (mM): 8 NaCl, 130 CsMeSO3, 10 HEPES, 0.5 EGTA, 4 Mg-ATP, 0.3 Na3-GTP, 5 QX-314 and 0.1 spermine. The pH was adjusted to 7.2–7.3 with CsOH and osmolarity to 285–290 mOsm. Peak amplitude of EPSCs was measured while varying holding voltage from −60 mV to +60 mV and stimulating the Schaffer collateral pathway at a frequency of 0.1 Hz at constant intensity. Five consecutive responses obtained at each holding potential were averaged to plot the current-voltage relationship. Currents through NMDA receptors were pharmacologically isolated using 10 μM NBQX, 50 μM picrotoxin and 20 μM (+)-bicuculline. In initial experiments, MgSO4 was omitted from the bath solution for at least 30 min before patching and replaced with 30 μM ephenidine, 10 μM ketamine, 30 μM D-AP5 or 2 mM MgSO4. Rectification indices were calculated from the EPSC values at +40 mV and −40 mV. In subsequent experiments, slices were incubated in aCSF with no added MgSO4, before transferring to the recording chamber to obtain control current-voltage plots from NMDA-EPSCs as above before adding 2 mM MgSO4 or 30 μM ephenidine for 30 min and repeating the current-voltage protocol. Representative sample traces are shown from typical experiments, and stimulus artifacts blanked for clarity. Data were normalized to the baseline preceding drug application, and are presented as mean ± SEM and compared using one-way ANOVA and level of significance is denoted as *** for p values < 0.001.

[3] = tested on: AMPA receptor-mediated fEPSP; test: Extracellular recording of AMPA receptor-mediated fEPSP in CA1 of hippocampal slices; assay type: cell-based, rat
Procedure: as §1
as §2, with “Single exponential curves were fitted to show likely half-times and minimum plateau responses achieved with each concentration used. For selectivity experiments, 50 μM picrotoxin and 1 μM CGP 55845 were added to the solution from the beginning of the experiment and 50 μM ephenidine was superfused for 60 min in the absence of other pharmacological agent.” left out

[4] = target: MK-801 binding site of the NMDA receptor; test: (+)-[3H]-MK-801 displacement binding in whole rat brain homogenate
Procedure: Termination of reaction was performed via vacuum filtration using a 24 well cell harvester (Brandel, Gaithersburg, MD) over presoaked GF/B glass fiber filters (Brandel, Gaithersburg, MD). Filters were washed with room temperature assay buffer (3 × 5 mL). Trapped tritium was measured via liquid scintillation counting, using a Beckman LS 6500 multipurpose scintillation counter (BeckmanCoulter, USA) at 57% efficiency. IC50 values were determined in Graphpad Prism 5.0 using non-linear regression with log-concentration plotted against percent specific binding. […] Ki values were calculated using the equation of [Cheng and Prusoff (1973)]. […] Protein concentration was determined via the Bradford method using Coomassie protein assay reagent (Sigma, USA) with rat albumin (Sigma, USA) as standard. Experiments were performed in duplicate and repeated three or four times.

[5] = target: dopamine transporter (DAT) (Homo sapiens, UniProt Q01959); test: NIMH PDSP receptor binding assay, dopamine transporter
Sequence of dopamine transporter (DAT) (Q01959 whole entry, species assumed): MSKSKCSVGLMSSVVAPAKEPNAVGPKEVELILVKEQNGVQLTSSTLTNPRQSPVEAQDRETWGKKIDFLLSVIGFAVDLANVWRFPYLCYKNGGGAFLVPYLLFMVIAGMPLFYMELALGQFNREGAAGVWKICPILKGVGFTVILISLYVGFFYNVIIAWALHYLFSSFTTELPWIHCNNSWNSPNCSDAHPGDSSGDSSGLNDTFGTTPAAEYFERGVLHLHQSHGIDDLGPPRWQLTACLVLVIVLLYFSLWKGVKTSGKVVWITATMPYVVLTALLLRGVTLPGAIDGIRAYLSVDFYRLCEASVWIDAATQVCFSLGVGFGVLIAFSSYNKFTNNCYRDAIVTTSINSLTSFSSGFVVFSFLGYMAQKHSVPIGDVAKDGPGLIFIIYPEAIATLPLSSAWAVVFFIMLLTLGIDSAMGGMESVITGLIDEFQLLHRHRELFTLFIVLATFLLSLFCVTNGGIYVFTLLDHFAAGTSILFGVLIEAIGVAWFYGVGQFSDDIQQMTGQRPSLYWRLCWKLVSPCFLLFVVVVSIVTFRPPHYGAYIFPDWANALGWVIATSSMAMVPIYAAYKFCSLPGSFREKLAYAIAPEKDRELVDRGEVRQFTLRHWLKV
Procedure: (§3) Displacement by ephenidine in binding assays of a further 45 CNS receptors was performed through the National Institute of Mental Health Psychoactive Drug Screening Program (NIMH PDSP). Briefly ephenidine, dissolved in DMSO, was subject to a primary screen at a concentration of 10 μM (see Suppl. 2 for radioligands used). […] Additional experimental details are available in the NIMH PDSP protocol book ([Roth et al., 2013]).

[6] = target: noradrenaline transporter (NET) (Homo sapiens, UniProt P23975); test: NIMH PDSP receptor binding assay, noradrenaline transporter
Sequence of noradrenaline transporter (NET) (P23975 whole entry): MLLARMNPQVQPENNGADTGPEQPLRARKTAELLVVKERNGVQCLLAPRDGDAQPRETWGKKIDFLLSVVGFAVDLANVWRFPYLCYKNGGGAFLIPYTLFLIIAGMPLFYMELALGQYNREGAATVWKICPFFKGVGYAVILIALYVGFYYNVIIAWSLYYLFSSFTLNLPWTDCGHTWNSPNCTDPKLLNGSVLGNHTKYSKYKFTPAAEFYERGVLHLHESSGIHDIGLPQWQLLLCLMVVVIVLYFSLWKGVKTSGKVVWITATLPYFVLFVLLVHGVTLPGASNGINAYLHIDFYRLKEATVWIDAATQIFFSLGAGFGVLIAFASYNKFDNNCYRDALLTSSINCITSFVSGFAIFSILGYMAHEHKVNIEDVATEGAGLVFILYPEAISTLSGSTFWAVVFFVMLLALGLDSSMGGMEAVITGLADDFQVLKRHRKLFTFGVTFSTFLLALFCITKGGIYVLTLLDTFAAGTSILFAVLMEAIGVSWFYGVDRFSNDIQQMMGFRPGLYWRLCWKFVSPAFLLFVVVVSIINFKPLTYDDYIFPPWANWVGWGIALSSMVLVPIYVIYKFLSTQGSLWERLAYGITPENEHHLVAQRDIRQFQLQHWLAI
Procedure: as §3

sigma 1 binding site = sigma 1 binding site (Homo sapiens, UniProt Q99720); test: NIMH PDSP receptor binding assay, sigma 1; conditions: affinity for sigma 1 binding site, NIMH PDSP secondary assay
Sequence of sigma 1 binding site (Q99720 whole entry): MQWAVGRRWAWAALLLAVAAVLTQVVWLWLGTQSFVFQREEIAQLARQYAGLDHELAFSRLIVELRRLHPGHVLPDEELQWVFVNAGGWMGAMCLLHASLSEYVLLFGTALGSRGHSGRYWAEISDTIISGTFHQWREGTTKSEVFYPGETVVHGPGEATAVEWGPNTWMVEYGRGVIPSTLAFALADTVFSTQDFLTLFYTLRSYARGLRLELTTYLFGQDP
Procedure: as §3

sigma 2 binding site = sigma 2 binding site (Homo sapiens, UniProt Q5BJF2); test: NIMH PDSP receptor binding assay, sigma 2
Sequence of sigma 2 binding site (Q5BJF2 whole entry): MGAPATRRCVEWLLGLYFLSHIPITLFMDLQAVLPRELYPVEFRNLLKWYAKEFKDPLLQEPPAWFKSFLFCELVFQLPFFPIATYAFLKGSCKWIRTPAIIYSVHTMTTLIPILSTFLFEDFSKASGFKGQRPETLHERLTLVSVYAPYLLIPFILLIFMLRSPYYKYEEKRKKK
Procedure: as §3

[7] = tested on: remaining 41 CNS receptors (Supplement 2); test: NIMH PDSP primary binding screen at 10 μM, remaining 41 receptors
Procedure: as §3

[8] = tested on: long-term potentiation (LTP) in CA1; test: LTP of fEPSPs in Schaffer collateral-CA1 pathway induced by theta burst stimulation; assay type: cell-based, rat
Procedure: as §1
To study the effect of ephenidine on long-term potentiation (LTP), slices were incubated in control aCSF or aCSF containing 10 μM ephenidine for at least 2 h before transferring to the recording chamber, fEPSPs were recorded as above without addition of other agents. After obtaining stable responses, a theta burst stimulation (TBS; [Park et al., 2016]) was applied to the Schaffer collateral pathway and the amplitude of the fEPSP in CA1 monitored for at least a further 40 min.

PCP binding site = tested on: PCP binding site; design: method as in Thurkauf et al., 1989; conditions: ref Thurkauf et al., 1989; cited from earlier work
[9] = target: MK-801 binding site of the NMDA receptor; design: method as in Wallach et al., 2016; conditions: same assay, ref Wallach et al., 2016, cited from earlier work; for Ki: read-out: Ki, (+)-[3H]-MK-801 displacement

Question: With `N[C@H](CCCP(=O)(O)O)C(=O)O` [D-AP5, D-2-amino-5-phosphonopentanoic acid, reference compound] as the compound, how does the “time-course of reduction of NMDA receptor mediated fEPSP” value [1] read?
Answer: rapid reduction

Question: And the “rectification index (RI; +40 mV/−40 mV)” value ([2]; 30 μM D-AP5, no added Mg2+)?
Answer: 0.8 ± 0.01

Question: And the “effect on NMDA-EPSC current-voltage relationship” value ([2]; 30 μM, no added Mg2+)?
Answer: reduced both inward and outward current

Question: With `NS(=O)(=O)c1cccc2c1c([N+](=O)[O-])cc1nc(O)c(O)nc12` [NBQX, reference compound] as the compound, how does the “effect on AMPA receptor mediated fEPSP” value ([3]; 3 μM) read?
Answer: rapid block of the remaining fEPSP

Question: Which results are given for `CCNC(Cc1ccccc1)c1ccccc1` (stereo not shown) [ephenidine, N-Ethyl-1,2-diphenylethanamine]?
Answer: IC50 ([4]; 1 nM (+)-[3H]-MK-801): 104 ± 5.9 nM; Ki ([4]; 1 nM (+)-[3H]-MK-801, Cheng-Prusoff): 66 nM and 66.4 nM; Ki [5]: 379 nM; Ki [6]: 841 nM; Ki (sigma 1 binding site): 629 nM and 628 nM; Ki (sigma 2 binding site): 721 nM; displacement in primary screen [7]: less than 50%; inhibition of NMDA receptor mediated fEPSP ([1]; 1 μM): 25%; inhibition of NMDA receptor mediated fEPSP ([1]; 10 μM): near maximal inhibition; also recorded: near maximal effect; effect on NMDA receptor mediated fEPSP ([1]; 30 μM): slowly reduced; effect on AMPA receptor mediated fEPSP (peak amplitude) ([3]; 50 μM, 1 h superfusion): lack of effect; also recorded: did not affect; also recorded: no significant reduction; block of NMDA receptor-mediated EPSCs ([2]; 10 μM): blocked NMDA receptor-mediated EPSCs in a highly voltage-dependent manner; rectification index (RI; +40 mV/−40 mV) ([2]; 30 μM ephenidine, no added Mg2+): 3.6 ± 0.3; effect on NMDA-EPSC current-voltage relationship ([2]; 30 μM, no added Mg2+): reduction of inward current at negative holding potentials; mean NMDA-EPSC current at +40 mV ([2]; 30 μM, no added Mg2+, holding potential +40 mV): 133 ± 12 pA; mean NMDA-EPSC current at −40 mV ([2]; 30 μM, no added Mg2+, holding potential −40 mV): −48 ± 8 pA; effect on induction of LTP ([8]; 10 μM): blocked the induction of long term potentiation (LTP); also recorded: completely blocked the induction of LTP; effect on induction of LTP ([8]; 30 μM): completely blocked the induction of LTP; affinity for the PCP binding site (PCP binding site): 257 nM

Question: With `CNC1(c2ccccc2Cl)CCCCC1=O` (stereo not shown) [ketamine] as the compound, how does the “time-course of reduction of NMDA receptor mediated fEPSP” value [1] read?
Answer: slower reduction

Question: And the “rectification index (RI; +40 mV/−40 mV)” value ([2]; 10 μM, no added Mg2+)?
Answer: 2.0 ± 0.2

Question: And the Ki ([9]; listed as Ketamine)?
Answer: 324 ± 19.2 nM

Question: And the IC50 ([9]; read-out: IC50, (+)-[3H]-MK-801 displacement)?
Answer: 508 ± 30.1 nM

Question: And the Ki [9]?
Answer: 324 ± 19 nM
